Measured values from the CheMixHub viscosity set.
Values joined by “and” are separate entries in the source; they are usually repeats but may differ in a detail not shown here. Equal values may be shown once.

C1COCCO1
Conditions | viscosity
293.15 K, 100 kPa | 1.286 mPa·s and 1.221 mPa·s
293.15 K, 101 kPa | 1.271 mPa·s
293.15 K, 101.3 kPa | 1.297 mPa·s
295.1 K, 101.32 kPa | 1.26 mPa·s
298.15 K, 100 kPa | 1.122 mPa·s
298.15 K, 101 kPa | 1.155 mPa·s
298.15 K, 101.33 kPa | 1.321 mPa·s and 1.149 mPa·s
301.15 K, 101.32 kPa | 1.116 mPa·s
302.15 K, 101 kPa | 1.099 mPa·s
303.15 K, 100 kPa | 1.034 mPa·s
304.15 K, 101.32 kPa | 1.046 mPa·s
306.15 K, 101 kPa | 1.029 mPa·s
307.15 K, 101.32 kPa | 0.9913 mPa·s
308.15 K, 100 kPa | 0.999 mPa·s
308.15 K, 101.33 kPa | 1 mPa·s and 0.999 mPa·s and 0.969 mPa·s
309.15 K, 101 kPa | 0.9815 mPa·s
310.15 K, 101.32 kPa | 0.9402 mPa·s
311.15 K, 101 kPa | 0.9497 mPa·s
313.1 K, 101 kPa | 0.929 mPa·s and 0.929 mPa·s
313.15 K, 101.32 kPa | 0.939 mPa·s and 0.8914 mPa·s
313.15 K, 101.33 kPa | 0.9376 mPa·s
316.15 K, 101 kPa | 0.8859 mPa·s
318.15 K, 101.33 kPa | 0.8714 mPa·s and 0.901 mPa·s
320.15 K, 101 kPa | 0.8276 mPa·s
323.1 K, 101 kPa | 0.809 mPa·s and 0.809 mPa·s
323.15 K, 100 kPa | 0.814 mPa·s
323.15 K, 101 kPa | 0.8147 mPa·s and 0.819 mPa·s
323.15 K, 101.33 kPa | 0.8121 mPa·s

Brc1ccccc1
Conditions | viscosity
293.15 K, 101 kPa | 1.125 mPa·s
293.15 K, 101.33 kPa | 1.142 mPa·s
298.15 K, 101 kPa | 1.07 mPa·s and 1.068 mPa·s
303.15 K, 101.33 kPa | 0.985 mPa·s
313.15 K, 101.33 kPa | 0.895 mPa·s
318 K, 101.3 kPa | 0.8536 mPa·s
318 K, 101.33 kPa | 0.8536 mPa·s
318.15 K, 101 kPa | 0.7925 mPa·s and 0.836 mPa·s
323.15 K, 101 kPa | 0.784 mPa·s

CC(C)[N+](=O)[O-]
Conditions | viscosity [mPa·s]
293.15 K, 101.33 kPa | 0.771

O
Conditions | viscosity
293.15 K, 100 kPa | 0.994 mPa·s and 0.991 mPa·s
295 K, 101.3 kPa | 0.975 mPa·s
295.15 K, 101 kPa | 0.955 mPa·s and 0.9548 mPa·s
295.65 K, 100.9 kPa | 0.9432 mPa·s
297.15 K, 101 kPa | 0.9111 mPa·s
298.15 K, 100 kPa | 0.884 mPa·s and 0.901 mPa·s
298.15 K, 101.3 kPa | 0.876 mPa·s
298.15 K, 101.33 kPa | 0.918 mPa·s
299.15 K, 101 kPa | 0.8705 mPa·s
300.15 K, 101 kPa | 0.797 mPa·s
300.65 K, 100.9 kPa | 0.8417 mPa·s
301.15 K, 101 kPa | 0.8327 mPa·s
302.15 K, 101 kPa | 0.917 mPa·s
303.15 K, 100 kPa | 0.796 mPa·s and 0.81 mPa·s
305.15 K, 101 kPa | 0.816 mPa·s and 0.717 mPa·s
305.65 K, 100.9 kPa | 0.7567 mPa·s
307.15 K, 101 kPa | 0.734 mPa·s
308.15 K, 101.3 kPa | 0.716 mPa·s and 0.708 mPa·s and 0.717 mPa·s
309.15 K, 101 kPa | 0.7052 mPa·s
310.65 K, 100.9 kPa | 0.6848 mPa·s
311.15 K, 101 kPa | 0.6833 mPa·s and 0.6783 mPa·s
313.15 K, 100 kPa | 0.662 mPa·s and 0.6579 mPa·s and 0.66 mPa·s
313.15 K, 101.33 kPa | 0.5631 mPa·s and 0.658 mPa·s
315.15 K, 101 kPa | 0.6291 mPa·s
316.15 K, 101 kPa | 0.6189 mPa·s
317.15 K, 101 kPa | 0.6067 mPa·s
318.15 K, 101.3 kPa | 0.594 mPa·s and 0.589 mPa·s and 0.592 mPa·s
318.15 K, 101.33 kPa | 0.6 mPa·s and 0.6 mPa·s
319.15 K, 101 kPa | 0.5856 mPa·s
320.15 K, 101 kPa | 0.5748 mPa·s
320.65 K, 100.9 kPa | 0.5706 mPa·s
321.15 K, 101 kPa | 0.5656 mPa·s
322.9 K, 101 kPa | 0.5516 mPa·s
323.15 K, 100 kPa | 0.567 mPa·s and 0.566 mPa·s
323.15 K, 101 kPa | 0.56 mPa·s and 0.5829 mPa·s and 0.5538 mPa·s

C1=C[C@H]2[C@@H](C1)[C@H]1C=C[C@@H]2C1
101.2 kPa
Conditions | viscosity [mPa·s]
293.15 K | 4.463
298.15 K | 3.918
303.15 K | 3.456
308.15 K | 3.126
313.15 K | 2.81
318.15 K | 2.539

O=C1CCCO1
viscosity
Conditions | 293.15 K | 298.15 K | 303.15 K | 308.15 K | 313.15 K | 318.15 K | 323.15 K
100 kPa | 1.92 mPa·s | 1.73 mPa·s and 1.73 mPa·s (3×) | 1.63 mPa·s and 1.63 mPa·s (3×) and 1.59 mPa·s | 1.52 mPa·s and 1.52 mPa·s (3×) | 1.42 mPa·s and 1.42 mPa·s (3×) | 1.35 mPa·s and 1.35 mPa·s (3×) | 1.3 mPa·s and 1.3 mPa·s (3×)
101 kPa | – | 1.74 mPa·s and 1.764 mPa·s | – | 1.477 mPa·s and 1.522 mPa·s and 1.429 mPa·s | – | 1.286 mPa·s and 1.33 mPa·s and 1.234 mPa·s | 1.206 mPa·s and 1.22 mPa·s
101.3 kPa | – | 1.75 mPa·s | – | – | – | – | –
101.33 kPa | 1.883 mPa·s | 1.738 mPa·s and 1.745 mPa·s | 1.765 mPa·s and 1.61 mPa·s and 1.612 mPa·s | 1.498 mPa·s | 1.39 mPa·s | – | 1.213 mPa·s

OCC(F)(F)F
Conditions | viscosity
293.15 K, 101 kPa | 2.11 mPa·s and 2.108 mPa·s
298 K, 101.3 kPa | 1.737 mPa·s
298.15 K, 100 kPa | 1.744 mPa·s
298.15 K, 101 kPa | 1.84 mPa·s and 1.722 mPa·s
298.15 K, 101.33 kPa | 1.73 mPa·s
303 K, 101.3 kPa | 1.357 mPa·s
303.15 K, 101 kPa | 1.62 mPa·s
303.15 K, 101.33 kPa | 1.53 mPa·s
308 K, 101.3 kPa | 1.201 mPa·s
308.15 K, 101 kPa | 1.43 mPa·s
308.15 K, 101.33 kPa | 1.35 mPa·s
313 K, 101.3 kPa | 1.054 mPa·s
313.15 K, 100 kPa | 1.23 mPa·s
313.15 K, 101 kPa | 1.27 mPa·s and 1.203 mPa·s
318.15 K, 100 kPa | 1.1 mPa·s
318.15 K, 101 kPa | 1.13 mPa·s
318.15 K, 101.33 kPa | 1.09 mPa·s
323.15 K, 100 kPa | 0.99 mPa·s and 0.948 mPa·s
323.15 K, 101 kPa | 1.02 mPa·s and 0.963 mPa·s

Ic1ccccc1
viscosity [mPa·s]
Conditions | 293.15 K | 298.15 K | 308.15 K | 318.15 K | 323.15 K
101 kPa | – | 1.513 | 1.318 | 1.162 | 1.083
101.33 kPa | 1.736 | – | – | – | –
